The text below walks through data of ChEMBL document CHEMBL2440025, “Bacterial neuraminidase inhibitory effects of prenylated isoflavones from roots of Flemingia philippinensis” (Bioorg Med Chem, 2013).

Test [1] addresses T1, Sialidase (Clostridium perfringens) (UniProt P10481).
T1 sequence (whole entry): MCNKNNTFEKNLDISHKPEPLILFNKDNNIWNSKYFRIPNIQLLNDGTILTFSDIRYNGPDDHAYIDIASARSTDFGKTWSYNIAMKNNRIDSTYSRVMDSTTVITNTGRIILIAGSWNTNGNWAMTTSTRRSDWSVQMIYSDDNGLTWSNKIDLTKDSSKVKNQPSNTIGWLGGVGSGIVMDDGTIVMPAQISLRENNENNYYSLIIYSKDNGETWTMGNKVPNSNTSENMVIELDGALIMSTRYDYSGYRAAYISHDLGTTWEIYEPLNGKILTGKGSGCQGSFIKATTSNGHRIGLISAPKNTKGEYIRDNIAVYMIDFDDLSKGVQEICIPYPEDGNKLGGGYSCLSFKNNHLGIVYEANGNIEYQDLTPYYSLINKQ
Nature of the test: (§1) Inhibition of Clostridium perfringens neuraminidase using 4-methylumbelliferyl-alpha-D-N-acetylneuraminic acid sodium salt hydrate as substrate by fluorimetry.

Test [2] concerns the target T2, Sialidase (Clostridium perfringens, UniProt P10481).
T2 sequence (P10481 whole entry): T1 sequence (whole entry)
Described as §1.

Test [3] has as its target T2, Sialidase. Nature of the test: Non-competitive inhibition of Clostridium perfringens neuraminidase using 4-methylumbelliferyl-alpha-D-N-acetylneuraminic acid sodium salt hydrate as substrate by Dixon plot method.

Molecules are shown by their SMILES.

With `C=CC(C)(C)C1=Cc2c(c(CC=C(C)C)c3occ(-c4ccc(O)cc4)c(=O)c3c2O)OC1(C)C`, in test [1], the inhibition entry is “Dose-dependent effect”. In addition, the IC50 – broadly, the concentration that gives 50% inhibition – in test [2] was determined as 7.9 µM. Further, in test [3], the Ki (in general, the dissociation constant of the complex between target and ligand, obtained from inhibition or displacement) is 7.27 µM.
In the same order, the values of `CC(C)=CCc1c(O)c(CC=C(C)C)c2occ(-c3ccc(O)c(O)c3)c(=O)c2c1O` are “Dose-dependent effect”, 1.07 µM and 1.02 µM.
In the same order, the values of `CC(C)=CCc1c2c(c(O)c3c(=O)c(-c4ccc(O)c(O)c4)coc13)C=CC(C)(C)O2` [AURICULASIN] are “Dose-dependent effect”, 0.3 µM and 0.13 µM.
The corresponding values for `CC(C)=CCc1c(-c2coc3cc(O)cc(O)c3c2=O)cc2c(c1O)OC(C)(C)C=C2` are “Dose-dependent effect”, 56.8 µM and 53 µM.
Consider `CC(C)=CCc1c2c(c3occ(-c4ccc(O)cc4)c(=O)c3c1O)C=CC(C)(C)O2` [OSAJIN], for which the inhibition entry in test [1] is “Dose-dependent effect”. Further, the IC50 in test [2] was found to be 3.06 µM. In addition, the Ki in test [3] was 3.21 µM.
As to `O=c1c(-c2ccc(O)cc2)coc2cc(O)cc(O)c12` [GENISTEIN], the IC50 in test [2] amounted to 12 µM.
As to `C=CC(C)(C)C1=Cc2c(c(CC=C(C)C)c3occ(-c4ccc(O)c(O)c4)c(=O)c3c2O)OC1(C)C`, the inhibition result in test [1] was “Dose-dependent effect”. Moreover, the IC50 in test [2] came to 1.63 µM. For the same compound, the Ki in test [3] is 1.36 µM.
The corresponding values for `COc1cc(-c2coc3c(CC=C(C)C)c(O)c(CC=C(C)C)c(O)c3c2=O)ccc1O` [FLEMINGSIN] are “Dose-dependent effect”, 3.75 µM and 3.68 µM.
The corresponding values for `CC(C)=CCc1cc(-c2coc3cc(O)cc(O)c3c2=O)c(CC=C(C)C)c(O)c1O` are “Dose-dependent effect”, 7.85 µM and 7.86 µM.
In the same order, the values of `CC(C)=CCc1c(O)c(CC=C(C)C)c2occ(-c3ccc(O)cc3)c(=O)c2c1O` are “Dose-dependent effect”, 4.04 µM and 4.29 µM.
